From ChEMBL document CHEMBL1201862, “PubChem BioAssay data set” (2004)
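These data come from cells grown in 96-well plates and exposed to compound for 48 hours at five concentrations. The concentration for 50% growth inhibition is given as GI50.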 Activity calls are given as the source filed them. No stated cut-off is given here; in the data, active = GI50 up to about 1.1 µM and inactive = higher.

What was measured:
Assay in all cases: NCI tumour cell line growth inhibition, 48 h
[1] = test system: CAKI-1
[2] = test system: SR
[3] = test system: UACC-62
[4] = test system: NCI-H460
[5] = test system: SN12C
[6] = test system: BT-549
[7] = test system: HOP-62
[8] = test system: OVCAR-8
[9] = test system: NCI/ADR-RES
[10] = test system: Malme-3M
[11] = test system: A498
[12] = test system: SK-OV-3
[13] = test system: OVCAR-3
[14] = test system: HT-29
[15] = test system: RXF 393
[16] = test system: HL-60
[17] = test system: SNB-19
[18] = test system: EKVX
[19] = test system: MCF7

Structure (SMILES) | GI50 [1] | GI50 [2] | GI50 [3] | GI50 [4] | GI50 [5] | GI50 [6] | GI50 [7] | GI50 [8] | GI50 [9] | GI50 [10] | GI50 [11] | GI50 [12] | GI50 [13] | GI50 [14] | GI50 [15] | GI50 [16] | GI50 [17] | GI50 [18] | GI50 [19]
CC[C@](O)(CC(=O)O[C@H]1C(=O)O[C@@H]2C[C@H]3C(C)=CC(=O)[C@@H](O)[C@]3(C)[C@H]3[C@@]4(O)OC[C@]32[C@@H]1[C@@H](C)[C@H]4O)C(C)C | < 0.01 µM (active) | < 0.01 µM (active) | < 0.01 µM (active) | < 0.01 µM (active) | < 0.01 µM (active) | < 0.01 µM (active) | < 0.01 µM (active) | < 0.01 µM (active) | < 0.0188 µM (active) | < 0.01 µM (active) | < 0.01 µM (active) | < 0.01 µM (active) | < 0.01 µM (active) | < 0.01 µM (active) | < 0.01 µM (active) | < 0.01 µM (active) | < 0.01 µM (active) | < 0.01 µM (active) | < 0.01 µM (active)
O=C(O)c1ccc2[nH]c(=O)oc2c1 | > 100 µM (inactive) | > 100 µM (inactive) | > 100 µM (inactive) | > 100 µM (inactive) | > 100 µM (inactive) | > 100 µM (inactive) | > 100 µM (inactive) | > 100 µM (inactive) | > 100 µM (inactive) | > 100 µM (inactive) | > 100 µM (inactive) | > 100 µM (inactive) | > 100 µM (inactive) | > 100 µM (inactive) | > 100 µM (inactive) | > 100 µM (inactive) | > 100 µM (inactive) | > 100 µM (inactive) | > 100 µM (inactive)
CC[C@H](C)C1=C(O)[N@+]2([O-])Oc3ccc(-c4c(O)c(O)c(-c5ccc(OC(C)=O)cc5)c(OC(C)=O)c4OC(C)=O)cc3O[C@]2([C@@H](C)CC)C(=O)N1O | 34.4 µM (inactive) | 12.5 µM (inactive) | 15 µM (inactive) | 21.5 µM (inactive) | 17.2 µM (inactive) | 32.7 µM (inactive) | 32 µM (inactive) | 24.5 µM (inactive) | 12.9 µM (inactive) | 17.1 µM (inactive) | 12.9 µM (inactive) | 15.4 µM (inactive) | 16.4 µM (inactive) | 25.3 µM (inactive) | > 50 µM (inactive) | 15.2 µM (inactive) | 45.3 µM (inactive) | > 50 µM (inactive) | 24.2 µM (inactive)
Cc1ccsc1/C(S)=N\c1ccc(Cl)c(/C=N/OC(C)(C)C)c1 | 29 µM (inactive) | 19.9 µM (inactive) | 32.4 µM (inactive) | 20.3 µM (inactive) | 27 µM (inactive) | 22.9 µM (inactive) | 51.5 µM (inactive) | 33 µM (inactive) | 23.6 µM (inactive) | 40.2 µM (inactive) | 20.2 µM (inactive) | > 100 µM (inactive) | 83.2 µM (inactive) | 14.1 µM (inactive) | 14.8 µM (inactive) | 24.2 µM (inactive) | > 100 µM (inactive) | 24.6 µM (inactive) | 35.2 µM (inactive)
COP(=O)(OC)[C@@](O)(c1ccccc1)[C@@H](O)[C@@H](O)c1ccccc1 | > 100 µM (inactive) | 0.531 µM (active) | > 100 µM (inactive) | > 100 µM (inactive) | > 100 µM (inactive) | > 100 µM (inactive) |  | > 100 µM (inactive) | > 100 µM (inactive) | > 100 µM (inactive) | > 100 µM (inactive) | > 100 µM (inactive) | > 100 µM (inactive) | > 100 µM (inactive) | > 100 µM (inactive) | > 100 µM (inactive) | > 100 µM (inactive) | > 100 µM (inactive) | 27.6 µM (inactive)
CC(=N\N)/C(C)=N/N=C(C)/C(C)=N/N=C(C)/C(C)=N/N | > 100 µM (inactive) | > 100 µM (inactive) |  | > 100 µM (inactive) | > 100 µM (inactive) | > 100 µM (inactive) | > 100 µM (inactive) | > 100 µM (inactive) | > 100 µM (inactive) | > 100 µM (inactive) | > 100 µM (inactive) | > 100 µM (inactive) | > 100 µM (inactive) | > 100 µM (inactive) | > 100 µM (inactive) | 28.5 µM (inactive) | > 100 µM (inactive) | > 100 µM (inactive) | > 100 µM (inactive)
CSc1nc(=S)[nH]c2[nH]nc(C)c12 | > 100 µM (inactive) | 94.4 µM (inactive) | > 100 µM (inactive) | > 100 µM (inactive) | > 100 µM (inactive) | > 100 µM (inactive) |  | > 100 µM (inactive) | > 100 µM (inactive) | > 100 µM (inactive) | 73.3 µM (inactive) | > 100 µM (inactive) | > 100 µM (inactive) | > 100 µM (inactive) | > 100 µM (inactive) | > 100 µM (inactive) | > 100 µM (inactive) | > 100 µM (inactive) | > 100 µM (inactive)
